Results reported in ChEMBL document CHEMBL1909294, “Translating clinical findings into knowledge in drug safety evaluation--drug induced liver injury prediction system (DILIps)” (PLoS Comput Biol, 2011).

What was measured:
Hepatotoxicity [1] = tested on: Hepatotoxicity;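 for HepSE cholecystitis: Cholecystitis-related hepatic side effect score drawn from the DILIps (drug-induced liver injury prediction) training data set; call rule not given here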; for HepSE hepatic failure: call rule not given here;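 for HepSE hepatitis: Hepatitis-related hepatic side effect score taken from the training data of DILIps, a prediction system for drug-induced liver injury; call rule not given here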;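 for HepSE hepatomegaly: hepatic side effect score for hepatomegaly, taken from the training set of the DILIps drug-induced liver injury prediction system; call rule not given here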; for HepSE liver disease: call rule not given here;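 for HepSE liver fatty: hepatic side effect score for fatty liver, taken from the DILIps training set for predicting drug-induced liver injury; call rule not given here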;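 for HepSE liver function tests abnormal: hepatic side effect score taken from the DILIps (drug-induced liver injury prediction system) training data, here covering abnormal liver function test findings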
Hepatotoxicity [2] = tested on: Hepatotoxicity; remark: listed apart in the source;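 for HepSE cholecystitis: Cholecystitis-related hepatic side effect score drawn from the DILIps (drug-induced liver injury prediction) training data set; call rule not given here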; for HepSE hepatic failure: call rule not given here;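 for HepSE hepatitis: Hepatitis-related hepatic side effect score taken from the training data of DILIps, a prediction system for drug-induced liver injury; call rule not given here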;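 for HepSE hepatomegaly: hepatic side effect score for hepatomegaly, taken from the training set of the DILIps drug-induced liver injury prediction system; call rule not given here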; for HepSE liver disease: call rule not given here;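 for HepSE liver fatty: hepatic side effect score for fatty liver, taken from the DILIps training set for predicting drug-induced liver injury; call rule not given here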;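 for HepSE liver function tests abnormal: hepatic side effect score taken from the DILIps (drug-induced liver injury prediction system) training data, here covering abnormal liver function test findings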
Hepatotoxicity [3] = tested on: Hepatotoxicity; remark: listed apart in the source;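 for HepSE cholecystitis: Cholecystitis-related hepatic side effect score drawn from the DILIps (drug-induced liver injury prediction) training data set; call rule not given here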; for HepSE hepatic failure: call rule not given here;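 for HepSE hepatitis: Hepatitis-related hepatic side effect score taken from the training data of DILIps, a prediction system for drug-induced liver injury; call rule not given here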;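 for HepSE hepatomegaly: hepatic side effect score for hepatomegaly, taken from the training set of the DILIps drug-induced liver injury prediction system; call rule not given here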; for HepSE liver disease: call rule not given here;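 for HepSE liver fatty: hepatic side effect score for fatty liver, taken from the DILIps training set for predicting drug-induced liver injury; call rule not given here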;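 for HepSE liver function tests abnormal: hepatic side effect score taken from the DILIps (drug-induced liver injury prediction system) training data, here covering abnormal liver function test findings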
Hepatotoxicity [4] = tested on: Hepatotoxicity; remark: listed apart in the source; for HepSE hepatic failure: call rule not given here;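 for HepSE hepatitis: Hepatitis-related hepatic side effect score taken from the training data of DILIps, a prediction system for drug-induced liver injury; call rule not given here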;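 for HepSE hepatomegaly: hepatic side effect score for hepatomegaly, taken from the training set of the DILIps drug-induced liver injury prediction system; call rule not given here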; for HepSE liver disease: call rule not given here;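 for HepSE liver fatty: hepatic side effect score for fatty liver, taken from the DILIps training set for predicting drug-induced liver injury; call rule not given here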;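 for HepSE liver function tests abnormal: hepatic side effect score taken from the DILIps (drug-induced liver injury prediction system) training data, here covering abnormal liver function test findings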
Hepatotoxicity [5] = tested on: Hepatotoxicity; remark: listed apart in the source; for HepSE hepatic failure: call rule not given here; for HepSE liver disease: call rule not given here
Hepatotoxicity [6] = tested on: Hepatotoxicity; remark: listed apart in the source; for HepSE hepatic failure: call rule not given here; for HepSE liver disease: call rule not given here
Hepatotoxicity [7] = tested on: Hepatotoxicity; remark: listed apart in the source
Hepatotoxicity [8] = tested on: Hepatotoxicity; remark: listed apart in the source
Hepatotoxicity [9] = tested on: Hepatotoxicity; remark: listed apart in the source
Hepatotoxicity [10] = tested on: Hepatotoxicity; remark: listed apart in the source
Hepatotoxicity [11] = tested on: Hepatotoxicity; remark: listed apart in the source
Hepatotoxicity [12] = tested on: Hepatotoxicity; remark: listed apart in the source
Hepatotoxicity [13] = tested on: Hepatotoxicity; remark: listed apart in the source
Hepatotoxicity [14] = tested on: Hepatotoxicity; remark: listed apart in the source

SMILES	HepSE_hepatitis (Hepatotoxicity [1])	HepSE_liver function tests abnormal (Hepatotoxicity [2])	HepSE_hepatic necrosis (Hepatotoxicity [3])	HepSE_hepatic failure (Hepatotoxicity [4])	HepSE_liver disease (Hepatotoxicity [5])	HepSE_liver fatty (Hepatotoxicity [6])	HepSE_hepatomegaly (Hepatotoxicity [7])	HepSE_cholecystitis (Hepatotoxicity [8])	HepSE_cirrhosis (Hepatotoxicity [9])	HepSE_elevated liver function tests (Hepatotoxicity [10])	HepSE_jaundice (Hepatotoxicity [11])	HepSE_cholelithiasis (Hepatotoxicity [12])	HepSE_Combined Scores (Hepatotoxicity [13])	HepSE_bilirubinemia (Hepatotoxicity [14])	further results
Cc1c(-c2ccccc2)oc2c(C(=O)OCCN3CCCCC3)cccc2c1=O [FLAVOXATE]	0	0	0	0	0	0	0	0	0	0	0	0	0	0	
O=C(NCC1CCCCN1)c1cc(OCC(F)(F)F)ccc1OCC(F)(F)F (stereo not drawn) [FLECAINIDE]	0	0	0	1	0	0	0	0	0	0	1	0	2	0	
OC(Cn1cncn1)(Cn1cncn1)c1ccc(F)cc1F [FLUCONAZOLE]															HepSE_hepatitis (Hepatotoxicity [1]; Liver): 1; HepSE_liver function tests abnormal (Hepatotoxicity [2]; Liver): 0; HepSE_hepatic necrosis (Hepatotoxicity [3]; Liver): 1; HepSE_hepatic failure (Hepatotoxicity [4]; Liver): 1; HepSE_liver disease (Hepatotoxicity [5]; Liver): 0; HepSE_liver fatty (Hepatotoxicity [6]; Liver): 0; HepSE_hepatomegaly (Hepatotoxicity [7]; Liver): 0; HepSE_cholecystitis (Hepatotoxicity [8]; Liver): 0; HepSE_cirrhosis (Hepatotoxicity [9]; Liver): 0; HepSE_elevated liver function tests (Hepatotoxicity [10]; Liver): 0; HepSE_jaundice (Hepatotoxicity [11]; Liver): 1; HepSE_cholelithiasis (Hepatotoxicity [12]; Liver): 0; HepSE_Combined Scores (Hepatotoxicity [13]; Liver): 4; HepSE_bilirubinemia (Hepatotoxicity [14]; Liver): 0
Nc1nc(=O)[nH]cc1F [FLUCYTOSINE]	0	0	0	0	0	0	0	0	0	0	1	0	1	0	
Nc1nc(F)nc2c1ncn2[C@@H]1O[C@H](CO)[C@@H](O)[C@@H]1O [FLUDARABINE]	0	0	0	1	0	0	0	0	0	0	0	1	2	0	
C[C@]12CCC(=O)C=C1CC[C@H]1[C@@H]3CC[C@](O)(C(=O)CO)[C@@]3(C)C[C@H](O)[C@@]12F [FLUDROCORTISONE]	0	0	0	0	0	0	0	0	0	0	0	0	0	0	
CCOC(=O)c1ncn2c1CN(C)C(=O)c1cc(F)ccc1-2 [FLUMAZENIL]	0	0	0	0	0	0	0	0	0	0	0	0	0	0	
C[C@@H]1C[C@H]2[C@@H]3C[C@H](F)C4=CC(=O)C=C[C@]4(C)[C@@]3(F)[C@@H](O)C[C@]2(C)[C@@]1(O)C(=O)CO [FLUMETHASONE]	0	0	0	0	0	0	0	0	0	0	0	0	0	0	
CC1(C)O[C@@H]2C[C@H]3[C@@H]4C[C@H](F)C5=CC(=O)C=C[C@]5(C)[C@H]4[C@@H](O)C[C@]3(C)[C@]2(C(=O)CO)O1 [FLUNISOLIDE]	0	0	0	0	0	0	0	0	0	0	0	0	0	0	
CC1(C)O[C@@H]2C[C@H]3[C@@H]4C[C@H](F)C5=CC(=O)C=C[C@]5(C)[C@@]4(F)[C@@H](O)C[C@]3(C)[C@]2(C(=O)CO)O1 [FLUOCINOLONE ACETONIDE]	0	0	0	0	0	0	0	0	0	0	0	0	0	0	
CC(=O)OCC(=O)[C@@]12OC(C)(C)O[C@@H]1C[C@H]1[C@@H]3C[C@H](F)C4=CC(=O)C=C[C@]4(C)[C@@]3(F)[C@@H](O)C[C@@]12C [FLUOCINONIDE]	0	0	0	0	0	0	0	0	0	0	0	0	0	0	
O=C1OC2(c3ccc(O)cc3Oc3cc(O)ccc32)c2ccccc21 [FLUORESCEIN]	0	0	0	0	0	0	0	0	0	0	0	0	0	0	
CC(=O)[C@@]1(O)CC[C@H]2[C@@H]3C[C@H](C)C4=CC(=O)C=C[C@]4(C)[C@@]3(F)[C@@H](O)C[C@@]21C [FLUOROMETHOLONE]	0	0	0	0	0	0	0	0	0	0	0	0	0	0	
O=c1[nH]cc(F)c(=O)[nH]1 [FLUOROURACIL]	0	0	0	0	0	0	0	0	0	0	0	0	0	0	
CNCCC(Oc1ccc(C(F)(F)F)cc1)c1ccccc1 (stereo not drawn) [FLUOXETINE]	1	1	0	1	0	1	1	1	0	0	1	1	8	0	
C[C@]1(O)CC[C@H]2[C@@H]3CCC4=CC(=O)CC[C@]4(C)[C@@]3(F)[C@@H](O)C[C@@]21C [FLUOXYMESTERONE]	0	0	0	0	0	0	0	0	0	0	1	0	1	0	
OCCN1CCN(CCCN2c3ccccc3Sc3ccc(C(F)(F)F)cc32)CC1 [FLUPHENAZINE]	1	0	0	0	0	0	0	0	0	0	1	0	2	0	
